Laboratory results taken from US20120088769A1, “SALTS OF ARYLSULFONAMIDE CCR3 ANTAGONISTS” (Axikin Pharmaceuticals, Inc., priority 2010, published 2012).

Test: Solubility assessment in water (aqueous solubility)
Type: physicochemical
Conditions: thermodynamic from solid
Description: Solubility assessment: A preweighed amount of powder of a salt was treated with water to target a nominal concentration of 50 mg/mL. If a clear solution was obtained, then the solubility was noted as ≧50 mg/mL. If a suspension was obtained, it was sonicated for 1 min, followed by vortex mixing for 30 sec, and centrifuged for 5 min. The mother liquor was siphoned off and assayed for content against a standard of the free base by HPLC.

With CN1CCN(S(=O)(=O)c2cc(C#N)ccc2Sc2cc(Cl)cc(Cl)c2)CC1 [Cmpd 1, 4-(3,5-dichlorophenylthio)-3-(4-methylpiperazin-1-ylsulfonyl)benzonitrile] the solubility at 1.5 min (Free base) was under 10 µg/mL, the solubility at 1.5 min (HBr salt) was 400 µg/mL and the solubility at 1.5 min (HCl salt) was 1360 µg/mL. The solubility at 1.5 min (Mesylate salt) was 7260 µg/mL, the solubility at 1.5 min (Phosphate salt) was 1700 µg/mL and the solubility at 1.5 min (Sulfate salt) was 790 µg/mL. It also gave a solubility at 1.5 min (Tartrate salt) of 450 µg/mL.

CCN1CCN(S(=O)(=O)c2cc(C#N)ccc2Oc2cc(Cl)cc(Cl)c2)CC1 [Cmpd 2, 4-(3,5-dichlorophenoxy)-3-(4-ethylpiperazin-1-ylsulfonyl)benzonitrile] gave a solubility at 1.5 min (Free base) of under 10 µg/mL, a solubility at 1.5 min (Mesylate salt) of 270 µg/mL and a solubility at 1.5 min (Phosphate salt) of 120 µg/mL. It also gave a solubility at 1.5 min (Sulfate salt) of 230 µg/mL.

Compound CCN1CCN(S(=O)(=O)c2cc(C#N)ccc2Oc2cc(C)cc(C)c2)CC1 [Cmpd 3, 4-(3,5-dimethylphenoxy)-3-(4-ethylpiperazin-1-ylsulfonyl)benzonitrile] has a solubility at 1.5 min (Camsylate salt) of 80 µg/mL, a solubility at 1.5 min (Free base) of under 10 µg/mL and a solubility at 1.5 min (HBr salt) of 30 µg/mL. The solubility at 1.5 min (HCl salt) was 330 µg/mL and the solubility at 1.5 min (Mesylate salt) was 200 µg/mL.

CC(C)N1CCN(S(=O)(=O)c2cc(C#N)ccc2Sc2cc(Cl)cc(Cl)c2)CC1 [Cmpd 4, 4-(3,5-dichlorophenylthio)-3-(4-isopropylpiperazin-1-ylsulfonyl)benzonitrile] gave a solubility at 1.5 min (Camsylate salt) of 240 µg/mL, a solubility at 1.5 min (Free base) of under 10 µg/mL and a solubility at 1.5 min (HBr salt) of 200 µg/mL. The solubility at 1.5 min (HCl salt) was 800 µg/mL, the solubility at 1.5 min (Mesylate salt) was 23000 µg/mL and the solubility at 1.5 min (Sulfate salt) was 1100 µg/mL.

Compound N#Cc1ccc(Sc2cc(Cl)cc(Cl)c2)c(S(=O)(=O)N2CCN(C3CCCC3)CC2)c1 [Cmpd 5, 3-(4-cyclopentylpiperazin-1-ylsulfonyl)-4-(3,5-dichlorophenylthio)-benzonitrile] has a solubility at 1.5 min (Free base) of under 10 µg/mL, a solubility at 1.5 min (HCl salt) of 110 µg/mL and a solubility at 1.5 min (Mesylate salt) of 230 µg/mL. The solubility at 1.5 min (Phosphate salt) was 10000 µg/mL and the solubility at 1.5 min (Sulfate salt) was 1200 µg/mL.

CCN1CCN(S(=O)(=O)c2cc([N+](=O)[O-])ccc2Oc2cc(Cl)cc(Cl)c2)CC1 [Cmpd 6, 1-(2-(3,5-dichlorophenoxy)-5-nitrophenylsulfonyl)-4-ethylpiperazine] showed a solubility at 1.5 min (Camsylate salt) of 250 µg/mL, a solubility at 1.5 min (Free base) of under 10 µg/mL and a solubility at 1.5 min (HBr salt) of 1000 µg/mL. It also gave a solubility at 1.5 min (HCl salt) of 1590 µg/mL, a solubility at 1.5 min (Mesylate salt) of 10000 µg/mL and a solubility at 1.5 min (Phosphate salt) of 1660 µg/mL. It also gave a solubility at 1.5 min (Sulfate salt) of 600 µg/mL and a solubility at 1.5 min (Tosylate salt) of 300 µg/mL.

N#Cc1ccc(Oc2cc(Cl)cc(Cl)c2)c(S(=O)(=O)N2CCC(NC(=O)NCCN3CCOCC3)CC2)c1 [Cmpd 7, 1-(1-(5-cyano-2-(3,5-dichlorophenoxy)phenylsulfonyl)piperidin-4-yl)-3-(2-morpholinoethyl)urea] gave a solubility at 1.5 min (Citrate salt) of 800 µg/mL, a solubility at 1.5 min (Free base) of under 10 µg/mL and a solubility at 1.5 min (HCl salt) of 3670 µg/mL. It also gave a solubility at 1.5 min (Mesylate salt) of 3810 µg/mL, a solubility at 1.5 min (Phosphate salt) of 2910 µg/mL and a solubility at 1.5 min (Sulfate salt) of 2350 µg/mL.

With CN1CCN(CCNC(=O)NC2CCN(S(=O)(=O)c3cc(C#N)ccc3Oc3cc(Cl)cc(Cl)c3)CC2)CC1 [Cmpd 8, 1-(1-(5-cyano-2-(3,5-dichlorophenoxy)phenylsulfonyl)piperidin-4-yl)-3-(2-(4-methylpiperazin-1-yl)ethyl)urea] the solubility at 1.5 min (Free base) was under 10 µg/mL, the solubility at 1.5 min (HCl salt) was 1400 µg/mL and the solubility at 1.5 min (Mesylate salt) was 10900 µg/mL. It also gave a solubility at 1.5 min (Phosphate salt) of 2400 µg/mL and a solubility at 1.5 min (Sulfate salt) of 580 µg/mL.
